Measured values published in US20080070898A1, “Piperidine Derivative or Pharmaceutically Acceptable Salt Thereof” (priority 2004, published 2008).
pIC50: −log10 of the molar value. Counter-ions that a name gives are not always drawn.

Legend:
[1] = test system: sodium channel; test: [14C] guanidine uptake test (sodium channel inhibition test), veratridine-induced uptake into rat cerebral cortex primary neurons; type: cell-based; conditions: 100 μM veratridine, 25° C., 15 minutes, specific uptake defined by 1 mM mexiletine
Description: (Sodium Channel Inhibition Test)
The [^14C] guanidine uptake test was conducted by modifying the method of Bonisch et al. (British Journal of Pharmacology 108, 436-442, 1993). The [^14C] guanidine was used as a sodium tracer, and the inhibitory activity on uptake of [^14C] guanidine induced by veratridine as a sodium channel activator into rat cerebral cortex primary neurons was measured.
a. Preparation of Rat Cerebral Cortex Primary Neuron Culture System.
A pregnant rat (Wistar, female, pregnancy=19 days old) was anesthetized with diethyl ether and killed by bleeding with the cutting of the carotid artery. Fetuses were excised from the pregnant rat and sterilized with ethanol for disinfection. Then, from the fetuses was dissociated the cerebral cortex. The cerebral cortex was digested with papain and dispersed in a culture medium. Then, the dissociated neurons were placed in a 96-well white plate coated with a poly-L-lysine, at a density of […], and cultured for 2 days in a CO2 incubator (37° C., 5% CO2)
b. Evaluation of Test Compounds
Each well was washed once with an assay buffer (135 mM choline Cl, 5 mM KCl, 1 mM MgSO4, 5.5 mM glucose, 1 mg/mL BSA, 10 mM Hepes-Tris, pH 7.4). The assay buffer was added to each well and incubated at 25° C. for 10 minutes. Then, the assay buffer was replaced by a reaction solution (test compound, [^14C] guanidine and 100 μM veratridine) and incubated at 25° C. for 15 minutes. The reaction was terminated by three times washing with a cold-washing buffer (135 mM NaCl, 5 mM KCl, 1 mM MgSO4, 10 mM Hepes-Tris, pH 7.4). To each well was added 17 μL of 0.1 N NaOH; stirring was made; then, 100 μL of a scintillator was added; and the radioactivity of each well was measured using a liquid scintillator counter. In each test, the uptake amount of [^14C] guanidine inhibited by 1 mM of mexiletine was taken as the portion of the specific uptake via sodium channel. The activity of test compound on sodium channel is expressed by 50% inhibitory concentration (IC50) for the specific uptake.

[2] = test system: streptozotocin (STZ)-induced diabetic mice; test: Analgesic action on diabetic neuropathy in streptozotocin-induced diabetic mice (tail pinch test); type: in vivo; conditions: orally 30 mg/kg, 45 minutes prior to measurement, Day 15 after STZ injection, ICR mice
Description: (Analgesic Action on Diabetic Neuropathy in Streptozotocin-Induced Diabetic Mice)
Representative compounds of Compound (I) of the present invention were assessed for the analgesic action on diabetic neuropathy in streptozotocin (STZ)-induced diabetic mice to confirm the effect on neuropathic pain. The assessment was performed by the method of Kamei et al. (Pharmacology Biochemistry & Behavior 39, 541-544, 1991) with some modifications.
Male ICR mice of 4 weeks old were intraperitoneally injected with 200 mg/kg weight of STZ to prepare mice with diabetic neuropathy. The analgesic action was assessed by the tail pinch test. […] On Day 14 following the STZ injection, a pretest was carried out to determine the response latency before the administration of a test compound. Only the animals showing not longer than 3 seconds of the response latency in the pretest were used for the test compound assessment on the following day (Day 15 after STZ injection). In the test compound assessment, the response latency after the administration of a test compound was measured. The test compound was orally administered at a dose of 30 mg/kg, 45 minutes prior to the response latency measurement. The analgesic action of a test compound is expressed as prolongation of latency (in seconds) calculated by the formula: (response latency after administration of a test compound)−(response latency before administration of a test compound).

[3] = test system: L5/L6 spinal nerve ligation rats; test: animal or person; conditions: Rattus norvegicus, po, read-out: ED50 (anti-allodynia action potency)
Description: (Anti-Allodynia Effect in Rats with L5/L6 Spinal Nerve Ligation)
The assessment was performed by the method of Kim and Chung (Pain 50, 355-363, 1992) with some modifications. Under pentobarbital anesthesia, male SD rats of 5 or 6 weeks old were given surgery to ligate both the left L5 and L6 lumbar spinal nerves tightly with silk threads. For the assessment of analgesic action, the von Frey hair test was adopted. That is, the animal's hindpaw was picked with hair and the lowest strength of hair for limb withdrawal response was designated as a response threshold (log gram) to mechanical stimulation. […] On the day before the assessment of a test compound, the response threshold before administration of a test compound was measured. The animals were divided into 4 to 5 groups so that differences in the mean values of response thresholds before administration among the groups and variation within groups become small. In the assessment of a test compound, the response threshold after administration of the test compound was measured. The test compound was orally given 30 minutes before measurement of the response threshold. The anti-allodynia action potency of a test compound is expressed as ED50. In the calculation of the ED50, the thresholds of ipsilateral and contralateral paws in the solvent group were designated as 0% and 100%, respectively.

Row | SMILES | pIC50 [1] | Increase in latent time (prolongation of latency, tail pinch) [2] [s] | ED50 [3] [mg/kg]
1 | O=C(CN1CCOCC1)N1CCC(/C=C/c2ccccc2Cl)CC1 [Example 1, 4-(2-{4-[(E)-2-(2-chlorophenyl)vinyl]piperidin-1-yl}-2-oxoethyl)morpholine oxalate] | 4.57 |  | 
2 | Cc1ccccc1/C=C/C1CCN(C(=O)CN2CCOCC2)CC1 [Example 3, 4-(2-{4-[(E)-2-(2-methylphenyl)vinyl]piperidin-1-yl}-2-oxoethyl)morpholine] |  | 2.3 | 
3 | CC(C)Oc1ccccc1/C=C/C1CCN(C(=O)CN2CCOCC2)CC1 [Example 10] | 4.80 |  | 
4 | CC(C)c1ccc(/C=C/C2CCN(C(=O)CN3CCOCC3)CC2)cc1 [Example 26, 4-(2-{4-[(E)-2-(4-isopropylphenyl)vinyl]piperidin-1-yl}-2-oxoethyl)morpholine] | 4.60 | 2.3 | 
5 | O=C(CN1CCOCC1)N1CCC(/C=C/c2ccc(Cl)cc2)CC1 [Example 40, 4-(2-{4-[(E)-2-(4-chlorophenyl)vinyl]piperidin-1-yl}-2-oxoethyl)morpholine] | 4.64 | 3.4 | 
6 | O=C(CN1CCOCC1)N1CCC(/C=C\c2ccc(Cl)cc2)CC1 [Example 52] | 4.62 |  | 
7 | O=C(CN1CCCOCC1)N1CCC(/C=C/c2ccc(Cl)cc2)CC1 [Example 65] | 4.92 |  | 
8 | O=C(CN1CCNCC1)N1CCC(/C=C/c2cccc(Cl)c2)CC1 [Example 68, 1-(2-{4-[(E)-2-(3-chlorophenyl)vinyl]piperidin-1-yl}-2-oxoethyl)piperazine di-hydrochloride] | 4.60 |  | 
9 | O=C(C1CCCN1)N1CCC(/C=C/c2ccc(Cl)cc2)CC1 (centres unmarked) [Example 74] | 4.89 |  | 
10 | O=C(CNC1CCCCC1)N1CCC(/C=C/c2ccc(Cl)cc2)CC1 [Example 76, N-2-{4-[(E)-2-(4-chlorophenyl)vinyl]piperidin-1-yl}-2-oxoethyl)cyclohexaneamine oxalate] | 5.47 | 3.2 | 
11 | CN(CC(=O)N1CCC(/C=C/c2ccc(Cl)cc2)CC1)C1CCCCC1 [Example 78, N-2-{4-[(E)-2-(4-chlorophenyl)vinyl]piperidin-1-yl}-2-oxoethyl)-N-methylcyclohexaneamine oxalate] | 5.51 | 2.4 | 
12 | Cc1cccc(C)c1OCC(C)N (centres unmarked) [mexiletine, reference compound] | ~4.15 |  | ~70
